tested on: A2780 ovarian cancer cells; test: Cellular proliferation in A2780 cells, Cell Titer Glo (Biological Method 4); type: cell-based; conditions: Homo sapiens; ovarian cancer cell line A2780
Outline: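 A2780 cells seeded at 1,000/well in DMEM with 10% FBS, at least 2 h before compound, then exposed 72 h at 37 °C, 5% CO2. Viable cells measured by Cell Titer Glo luminescence; EC50 calculated from duplicate conditions.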

Row | SMILES | EC50
1 | CS(=O)(=O)Nc1ccccc1-c1cc(-c2cnc(N)cc2C(F)(F)F)nc(N2CCOCC2)n1 [Compound 159] | < 10 µM
2 | Nc1ncc(-c2cc(Nc3ccccc3F)nc(N3CCOCC3)n2)cn1 [Compound 87] | < 10 µM
3 | Nc1ncc(-c2cc(O[C@@H]3CCOC3)nc(N3CCOCC3)n2)c(N)n1 [Compound 108] | < 1 µM
4 | CC(=O)N1CCC(Oc2cc(-c3cnc(N)nc3N)nc(N3CCOCC3)n2)CC1 [Compound 99] | < 1 µM
5 | CS(=O)(=O)c1cccc(-c2cc(-c3cnc(N)nc3C(F)(F)F)nc(N3CCOCC3)n2)c1 [Compound 143] | < 1 µM
6 | COc1nc(N)ncc1-c1cc(Nc2cnc3ccccc3c2)nc(N2CCOCC2)n1 [Compound 161] | < 1 µM
7 | CC(C)OC(=O)N1CCC(Oc2cc(-c3cnc(N)nc3C(F)(F)F)nc(N3CCOCC3)n2)CC1 [Compound 115] | < 10 µM
8 | COC(=O)N1CCC[C@@H](Oc2cc(-c3cnc(N)nc3N)nc(N3CCOCC3)n2)C1 [Compound 63] | < 1 µM
9 | Nc1ncc(-c2cc(Nc3ccc(F)cc3)nc(N3CCOCC3)n2)cn1 [Compound 123] | < 10 µM
10 | Nc1ncc(-c2cc(Nc3ccncc3)nc(N3CCOCC3)n2)cn1 [Compound 44] | < 1 µM
11 | CC(C)OC(=O)N1CCC(Oc2cc(-c3cnc(N)[nH]c3=O)nc(N3CCOCC3)n2)CC1 [Compound 32] | < 1 µM
12 | Nc1ncc(-c2cc(OC3CCN(C(=O)c4ccccc4)CC3)nc(N3CCOCC3)n2)c(C(F)(F)F)n1 [Compound 124] | < 1 µM
13 | Cc1cc(Nc2cc(-c3cnc(N)cc3C(F)(F)F)nc(N3CCOCC3)n2)ccn1 [Compound 110] | < 1 µM
14 | Nc1ccc(-c2cc(Nc3ccccc3N3CCOCC3)nc(N3CCOCC3)n2)cn1 [Compound 180] | < 10 µM
15 | Nc1ccc(-c2cc(Nc3cnc4ccccc4c3)nc(N3CCOCC3)n2)c(Cl)n1 [Compound 195] | < 1 µM
16 | CS(=O)(=O)c1cccc(-c2cc(-c3cnc(N)cc3C(F)(F)F)nc(N3CCOCC3)n2)c1 [Compound 95] | < 1 µM

same assay, conditions: Homo sapiens; ovarian cancer cell line A2780, Biological Method 4

Row | SMILES | EC50
17 | COc1ccc(Nc2cc(-c3cnc(N)cc3C(F)(F)F)nc(N3CCOCC3)n2)cn1 [Compound 199] | < 10 µM
18 | COc1ccc2ncc(Nc3cc(-c4cnc(N)nc4)nc(N4CCOCC4)n3)cc2c1 [Compound 206] | < 1 µM
19 | Nc1ncc(-c2cc(Nc3cnc4ccccc4c3)nc(N3CCOCC3)n2)cc1F [Compound 202] | < 1 µM
20 | Nc1cc(C(F)(F)F)c(-c2cc(N3CCOc4ccccc43)nc(N3CCOCC3)n2)cn1 [Compound 210] | < 10 µM
21 | CCc1c(Nc2cnc3ccccc3c2)nc(N2CCOCC2)nc1-c1ccc(N)nc1 [Compound 213] | < 1 µM

target: PI3 kinase alpha (Homo sapiens, UniProt P42336); test: PI3K ATP depletion assay (Biological Method 1, Assay 3; KinaseGlo luminescence); type: biochemical; conditions: ATP depletion assay, Biological Method 1; read-out: PI3 Kinase Alpha, IC50
Outline: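 Compound in DMSO was mixed with 10 nM PI3 kinase and 5 μg/mL phosphatidylinositol, and the reaction was started with 2 μM ATP. It ran to about 50% ATP depletion and was stopped with KinaseGlo.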

Sequence of PI3 kinase alpha (P42336 whole entry): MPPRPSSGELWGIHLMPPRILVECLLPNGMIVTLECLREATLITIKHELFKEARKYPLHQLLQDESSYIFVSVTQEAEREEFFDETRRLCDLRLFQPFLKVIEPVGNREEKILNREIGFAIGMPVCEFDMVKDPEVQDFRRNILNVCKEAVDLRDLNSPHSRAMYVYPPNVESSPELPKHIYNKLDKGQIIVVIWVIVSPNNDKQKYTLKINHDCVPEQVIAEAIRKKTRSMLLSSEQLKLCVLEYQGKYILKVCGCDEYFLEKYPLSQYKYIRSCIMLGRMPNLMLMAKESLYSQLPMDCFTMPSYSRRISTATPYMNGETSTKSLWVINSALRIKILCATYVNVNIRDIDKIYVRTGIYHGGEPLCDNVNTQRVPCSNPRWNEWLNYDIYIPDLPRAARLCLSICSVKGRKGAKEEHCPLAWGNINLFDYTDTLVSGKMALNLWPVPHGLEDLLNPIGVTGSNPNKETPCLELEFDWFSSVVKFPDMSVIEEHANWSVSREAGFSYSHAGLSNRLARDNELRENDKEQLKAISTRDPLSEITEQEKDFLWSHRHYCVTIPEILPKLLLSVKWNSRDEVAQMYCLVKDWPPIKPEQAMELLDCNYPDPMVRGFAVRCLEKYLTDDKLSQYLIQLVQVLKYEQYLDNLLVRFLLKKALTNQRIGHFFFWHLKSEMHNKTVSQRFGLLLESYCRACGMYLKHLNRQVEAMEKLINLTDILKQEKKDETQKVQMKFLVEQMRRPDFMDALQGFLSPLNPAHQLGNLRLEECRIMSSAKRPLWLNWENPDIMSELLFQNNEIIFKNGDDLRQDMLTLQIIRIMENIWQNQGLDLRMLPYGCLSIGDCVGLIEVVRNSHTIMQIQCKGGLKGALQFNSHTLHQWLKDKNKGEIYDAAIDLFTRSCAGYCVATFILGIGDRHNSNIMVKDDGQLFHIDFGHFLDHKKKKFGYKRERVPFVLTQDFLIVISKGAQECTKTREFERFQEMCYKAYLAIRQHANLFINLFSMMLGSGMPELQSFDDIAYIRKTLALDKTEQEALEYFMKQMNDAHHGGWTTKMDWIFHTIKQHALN
Sequence of PI3 kinase alpha (P27986 whole entry partner): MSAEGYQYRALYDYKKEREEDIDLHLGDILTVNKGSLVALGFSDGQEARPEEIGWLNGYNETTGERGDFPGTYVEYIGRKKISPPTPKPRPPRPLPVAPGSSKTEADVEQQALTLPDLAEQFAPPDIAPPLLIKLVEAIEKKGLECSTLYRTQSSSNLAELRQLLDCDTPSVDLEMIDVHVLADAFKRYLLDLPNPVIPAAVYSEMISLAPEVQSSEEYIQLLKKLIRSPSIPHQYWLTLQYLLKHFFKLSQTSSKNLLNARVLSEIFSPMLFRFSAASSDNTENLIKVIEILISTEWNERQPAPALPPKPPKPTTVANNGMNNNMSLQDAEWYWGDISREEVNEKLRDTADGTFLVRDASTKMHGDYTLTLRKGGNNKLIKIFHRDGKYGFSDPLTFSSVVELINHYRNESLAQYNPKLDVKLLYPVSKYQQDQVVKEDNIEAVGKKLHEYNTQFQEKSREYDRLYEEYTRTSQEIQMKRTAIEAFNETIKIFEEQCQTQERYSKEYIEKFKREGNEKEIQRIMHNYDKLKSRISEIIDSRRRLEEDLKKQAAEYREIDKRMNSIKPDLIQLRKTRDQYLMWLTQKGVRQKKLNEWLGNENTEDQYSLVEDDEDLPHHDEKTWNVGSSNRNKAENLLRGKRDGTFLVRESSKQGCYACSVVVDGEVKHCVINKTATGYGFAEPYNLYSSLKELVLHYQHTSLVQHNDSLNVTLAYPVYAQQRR

Row | SMILES | IC50
22 | COc1ccc(Nc2cc(-c3cnc(N)cc3C(F)(F)F)nc(N3CCOCC3)n2)cn1 [Compound 199] | < 1 µM
23 | COc1ccc2ncc(Nc3cc(-c4cnc(N)nc4)nc(N4CCOCC4)n3)cc2c1 [Compound 206] | < 1 µM
24 | Nc1ncc(-c2cc(Nc3cnc4ccccc4c3)nc(N3CCOCC3)n2)cc1F [Compound 202] | < 1 µM
25 | Nc1cc(C(F)(F)F)c(-c2cc(N3CCOc4ccccc43)nc(N3CCOCC3)n2)cn1 [Compound 210] | < 1 µM
26 | CCc1c(Nc2cnc3ccccc3c2)nc(N2CCOCC2)nc1-c1ccc(N)nc1 [Compound 213] | < 1 µM

same assay, conditions: ATP depletion assay; read-out: PI3 Kinase Alpha, IC50

Row | SMILES | IC50
27 | CS(=O)(=O)Nc1ccccc1-c1cc(-c2cnc(N)cc2C(F)(F)F)nc(N2CCOCC2)n1 [Compound 159] | < 1 µM
28 | Nc1ncc(-c2cc(Nc3ccccc3F)nc(N3CCOCC3)n2)cn1 [Compound 87] | < 1 µM
29 | Nc1ncc(-c2cc(O[C@@H]3CCOC3)nc(N3CCOCC3)n2)c(N)n1 [Compound 108] | < 1 µM
30 | CC(=O)N1CCC(Oc2cc(-c3cnc(N)nc3N)nc(N3CCOCC3)n2)CC1 [Compound 99] | < 1 µM
31 | CS(=O)(=O)c1cccc(-c2cc(-c3cnc(N)nc3C(F)(F)F)nc(N3CCOCC3)n2)c1 [Compound 143] | < 1 µM
32 | COc1nc(N)ncc1-c1cc(Nc2cnc3ccccc3c2)nc(N2CCOCC2)n1 [Compound 161] | < 1 µM
33 | CC(C)OC(=O)N1CCC(Oc2cc(-c3cnc(N)nc3C(F)(F)F)nc(N3CCOCC3)n2)CC1 [Compound 115] | < 1 µM
34 | COC(=O)N1CCC[C@@H](Oc2cc(-c3cnc(N)nc3N)nc(N3CCOCC3)n2)C1 [Compound 63] | < 1 µM
35 | Nc1ncc(-c2cc(Nc3ccc(F)cc3)nc(N3CCOCC3)n2)cn1 [Compound 123] | < 1 µM
36 | Nc1ncc(-c2cc(Nc3ccncc3)nc(N3CCOCC3)n2)cn1 [Compound 44] | < 1 µM
37 | CC(C)OC(=O)N1CCC(Oc2cc(-c3cnc(N)[nH]c3=O)nc(N3CCOCC3)n2)CC1 [Compound 32] | < 1 µM
38 | Nc1ncc(-c2cc(OC3CCN(C(=O)c4ccccc4)CC3)nc(N3CCOCC3)n2)c(C(F)(F)F)n1 [Compound 124] | < 1 µM
39 | Cc1cc(Nc2cc(-c3cnc(N)cc3C(F)(F)F)nc(N3CCOCC3)n2)ccn1 [Compound 110] | < 1 µM
40 | Nc1ccc(-c2cc(Nc3ccccc3N3CCOCC3)nc(N3CCOCC3)n2)cn1 [Compound 180] | < 1 µM
41 | Nc1ccc(-c2cc(Nc3cnc4ccccc4c3)nc(N3CCOCC3)n2)c(Cl)n1 [Compound 195] | < 1 µM
42 | CS(=O)(=O)c1cccc(-c2cc(-c3cnc(N)cc3C(F)(F)F)nc(N3CCOCC3)n2)c1 [Compound 95] | < 1 µM

tested on: pSer473 Akt in A2780 cells; test: pSer473 Akt assay to monitor PI3K pathway in A2780 cells (Biological Method 2, MSD); type: cell-based; conditions: Homo sapiens, A2780; inhibition of Akt phosphorylation, Biological Method 2
Method: In this method, an assay for measuring the PI3K-mediated pSer473-Akt status after treatment with representative inhibitor compounds of the invention is described.
A2780 cells were cultured in DMEM supplemented with 10% FBS. L-glutamine, sodium pyruvate, and antibiotics. Cells were plated in the same medium at a density of 15,000 cells per well into 96 well tissue culture plates, with outside wells vacant, and allowed to adhere overnight.
Test compounds supplied in DMSO were diluted further into DMSO at 500 times the desired final concentrations before dilution into culture media to 2 times the final concentrations. Equal volumes of 2× compounds were added to the cells in 96 well plates and incubated at 37° C. for one hour. The media and compounds were then removed, the plates chilled and cells lysed in a lysis buffer (150 mM NaCl, 20 mM Tris pH 7.5, 1 mM EDTA, 1 mM EGTA, 1% Triton X-100) supplemented with phosphatase and protease inhibitors. After thorough mixing, lysates were transferred to both pSer473Akt and total Akt assay plates from Meso Scale Discovery (MSD), and incubated overnight with shaking at 4° C.
The assays were read on a SECTOR Imager 6000 instrument (Meso Scale Discovery). Ratios of the signal from pSer473Akt and total Akt assays were used to correct for any variability and the percent inhibition of pSer473Akt from the total signal seen in cells treated with compound versus DMSO alone was calculated and used to determine EC50 values for each compound.

Row | SMILES | EC50
43 | COc1ccc(Nc2cc(-c3cnc(N)cc3C(F)(F)F)nc(N3CCOCC3)n2)cn1 [Compound 199] | < 1 µM
44 | COc1ccc2ncc(Nc3cc(-c4cnc(N)nc4)nc(N4CCOCC4)n3)cc2c1 [Compound 206] | < 1 µM
45 | Nc1ncc(-c2cc(Nc3cnc4ccccc4c3)nc(N3CCOCC3)n2)cc1F [Compound 202] | < 1 µM
46 | Nc1cc(C(F)(F)F)c(-c2cc(N3CCOc4ccccc43)nc(N3CCOCC3)n2)cn1 [Compound 210] | < 10 µM
47 | CCc1c(Nc2cnc3ccccc3c2)nc(N2CCOCC2)nc1-c1ccc(N)nc1 [Compound 213] | < 10 µM

same assay, conditions: Homo sapiens; inhibition of Akt phosphorylation, A2780 cells

Row | SMILES | EC50
48 | CS(=O)(=O)Nc1ccccc1-c1cc(-c2cnc(N)cc2C(F)(F)F)nc(N2CCOCC2)n1 [Compound 159] | < 1 µM
49 | Nc1ncc(-c2cc(Nc3ccccc3F)nc(N3CCOCC3)n2)cn1 [Compound 87] | < 1 µM
50 | Nc1ncc(-c2cc(O[C@@H]3CCOC3)nc(N3CCOCC3)n2)c(N)n1 [Compound 108] | < 1 µM
51 | CC(=O)N1CCC(Oc2cc(-c3cnc(N)nc3N)nc(N3CCOCC3)n2)CC1 [Compound 99] | < 1 µM
52 | CS(=O)(=O)c1cccc(-c2cc(-c3cnc(N)nc3C(F)(F)F)nc(N3CCOCC3)n2)c1 [Compound 143] | < 1 µM
53 | COc1nc(N)ncc1-c1cc(Nc2cnc3ccccc3c2)nc(N2CCOCC2)n1 [Compound 161] | < 1 µM
54 | CC(C)OC(=O)N1CCC(Oc2cc(-c3cnc(N)nc3C(F)(F)F)nc(N3CCOCC3)n2)CC1 [Compound 115] | < 1 µM
55 | COC(=O)N1CCC[C@@H](Oc2cc(-c3cnc(N)nc3N)nc(N3CCOCC3)n2)C1 [Compound 63] | < 1 µM
56 | Nc1ncc(-c2cc(Nc3ccc(F)cc3)nc(N3CCOCC3)n2)cn1 [Compound 123] | < 1 µM
57 | Nc1ncc(-c2cc(Nc3ccncc3)nc(N3CCOCC3)n2)cn1 [Compound 44] | < 1 µM
58 | CC(C)OC(=O)N1CCC(Oc2cc(-c3cnc(N)[nH]c3=O)nc(N3CCOCC3)n2)CC1 [Compound 32] | < 1 µM
59 | Nc1ncc(-c2cc(OC3CCN(C(=O)c4ccccc4)CC3)nc(N3CCOCC3)n2)c(C(F)(F)F)n1 [Compound 124] | < 1 µM
60 | Cc1cc(Nc2cc(-c3cnc(N)cc3C(F)(F)F)nc(N3CCOCC3)n2)ccn1 [Compound 110] | < 1 µM
61 | Nc1ccc(-c2cc(Nc3ccccc3N3CCOCC3)nc(N3CCOCC3)n2)cn1 [Compound 180] | < 1 µM
62 | Nc1ccc(-c2cc(Nc3cnc4ccccc4c3)nc(N3CCOCC3)n2)c(Cl)n1 [Compound 195] | < 1 µM
63 | CS(=O)(=O)c1cccc(-c2cc(-c3cnc(N)cc3C(F)(F)F)nc(N3CCOCC3)n2)c1 [Compound 95] | < 1 µM

Source: patent US8217035B2, “Pyrimidine derivatives used as PI-3-kinase inhibitors” (Novartis AG, priority 2006, dated 2012)
